System: passive cutaneous anaphylaxis
Test: antiallergic action, passive cutaneous anaphylaxis (PCA) in rats, oral
Format: in vivo, rat
Conditions: for ED50: Rattus norvegicus, read-out: Inhibition of PCA, ED 50%; for Inhibition of PCA, relative effectiveness: relative to comparative compound V1 (1.00); for times more effective than the comparative compound V1: administered orally
Experimental: The antiallergic action was tested against passive cutaneous anaphylaxis in rats.
Narcotized male rats (weighing from 100 to 140 g) are sensitized by administration of an intradermal injection (shaved skin) of 0.1 ml of an ovalbumin antiserum. After a sensitization period of about 48 hours, treatment is carried out by administering various dosages (10 animals/dose) of the test substances intraperitoneally or orally. 15 and 20 minutes after treatment, an anitgen/Evans blue mixture (10 mg/kg of ovalbumin in 2% strength Evans blue solution) is injected intravenously into the experimental animals. 30 minutes later, the animals are killed, and the back skin is peeled off and the diameter of the circular blue area on the inner surface is measured. The size of the colored spot in untreated control animals may be standardized. Antiallergic substances reduce the diameter of the colored spots, their reduction being dependent on the dose. The ED 50% is the dose which produces a 50% reduction in the diameter of the colored spot in comparison with control animals which have not been treated with the drug.

[1] = oral administration, rats, dose giving 50% reduction in diameter of colored spot vs untreated controls

SMILES	ED50 [1]	Inhibition of PCA, relative effectiveness (oral administration, rats)	times more effective than the comparative compound V1	Inhibition of PCA, ED 50% [1]	oral effectiveness in doses up to 100 mg/kg (oral, doses up to 100 mg/kg, commercial preparation Intal)
CCOC(=O)C(=O)Nc1nc2c(s1)Cc1ccccc1-2 [Example 1, Ethyl N-(indeno[1,2-d]thiazol-2-yl)-oxamate]	1.48 mg/kg	5.81			
CCOC(=O)C(=O)Nc1nc2c(s1)C(=O)c1ccccc1-2 [Example 2, Ethyl N-(8-oxoindeno[1,2-d]thiazol-2-yl)-oxamate]	1.95 mg/kg	4.41	4.4 times		
O=C(O)C(=O)Nc1nc2c(s1)Cc1ccccc1-2 [Example 4, N-(Indeno[1,2-d]thiazol-2-yl)-oxamic acid]	1.3 mg/kg	6.61	6.6 times		
O=C(O)C(=O)Nc1nc2ccccc2s1 [Example V1, N-benzothiazol-2-yl oxamate, reference compound]		1.00		> 8.60 mg/kg	
O=C(O)c1cc(=O)c2c(OCC(O)COc3cccc4oc(C(=O)O)cc(=O)c34)cccc2o1 [cromolyn, reference compound]	100 mg/kg				orally ineffective

— patent US4517196A, “Tricyclic thiazolyloxamic acids and their derivatives, their preparation, and therapeutic agents containing these compounds” (BASF Aktiengesellschaft, priority 1981, dated 1985)
